Biological target: T1, TRPV3 (Mus musculus, UniProt Q8K424)
T1 sequence (Q8K424 1-791): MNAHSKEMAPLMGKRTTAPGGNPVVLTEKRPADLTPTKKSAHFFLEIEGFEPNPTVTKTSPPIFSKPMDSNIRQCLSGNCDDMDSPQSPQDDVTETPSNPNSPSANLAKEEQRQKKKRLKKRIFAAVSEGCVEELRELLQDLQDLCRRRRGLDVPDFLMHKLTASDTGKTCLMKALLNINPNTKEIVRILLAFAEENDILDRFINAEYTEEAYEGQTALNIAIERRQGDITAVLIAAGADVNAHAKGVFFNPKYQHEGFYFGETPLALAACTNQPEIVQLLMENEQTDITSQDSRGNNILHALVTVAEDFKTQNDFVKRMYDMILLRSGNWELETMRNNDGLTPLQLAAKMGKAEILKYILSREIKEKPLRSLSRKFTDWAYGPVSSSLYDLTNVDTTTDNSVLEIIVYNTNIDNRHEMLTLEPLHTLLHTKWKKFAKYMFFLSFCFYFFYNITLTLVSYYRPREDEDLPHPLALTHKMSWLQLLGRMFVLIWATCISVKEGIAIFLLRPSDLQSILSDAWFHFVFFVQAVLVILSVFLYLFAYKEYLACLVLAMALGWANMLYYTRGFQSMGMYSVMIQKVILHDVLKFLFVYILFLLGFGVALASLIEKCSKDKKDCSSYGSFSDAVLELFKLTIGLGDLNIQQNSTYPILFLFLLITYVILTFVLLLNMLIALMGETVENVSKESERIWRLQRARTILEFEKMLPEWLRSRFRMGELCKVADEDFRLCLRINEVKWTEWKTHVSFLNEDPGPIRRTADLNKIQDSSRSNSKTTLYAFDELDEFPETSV
Assay: patch-clamp, reversible potentiation of 2-APB response in inside-out patches
Type: cell-based

Compound: CC(C)=C[C@H]1C[C@H](C)[C@]2(CC[C@]3(C)C[C@H]4[C@H](C(=O)C[C@@]4(C)O)/C(C=O)=C\C[C@H]32)O1 [ophiobolin A]
- patch-clamp, reversible potentiation of 2-APB response in inside-out patches: some CaM inhibitors such as ophiobolin A and W-7 may directly interfere with the gating of TRPV3
